Assay [1] relates to rumen liquor. Put plainly: In vitro test for methane production (modified Hohenheim Forage value Test, HFT). Type of assay: cell-based. The conditions noted are these: for Total methane: 8 h, 39° C., artificial TMR, average of three experiments. How it is done: In Vitro Test for Methane Production:
(§1) A modified version of the “Hohenheim Forage value Test (HFT)” was used for testing the effect of specific compounds on the rumen functions mimicked by this in-vitro system.
(§2) Feed is gadded into a syringe with a composition of rumen liquor and an appropriate mixture of buffers. The solution is incubated at 39° C. After 8 hours the quantity (and composition) of gas phase produced is measured and put into a formula for conversion.
(§3) The feed stuff is sieved to 1 mm—usually TMR (44% concentrate, 6% hay, 37% maize silage and 13% grass silage)—and weighed exactly into 64 syringes. 4 of these syringes are the substrate controls, which display the gas production without the effect of the tested compounds. […] When needed, 4 syringes contain a carrier control (if the test compounds need a carrier). The remaining syringes contain the test substances, by groups of 4 syringes.
(§4) Preparation of the Medium Solution: • The components are mixed in a Woulff bottle in following order: • 711 ml water • 0.18 ml trace element solution • 355.5 ml buffer solution • 355.5 ml mass element solution • The completed solution is warmed up to 39° C. followed by the addition of 1.83 ml sodium salt solution and the addition of reduction solution at 36° C. The rumen liquor is added, when the indicator turns colourless.
(§5) 750 ml of rumen liquor are added to approximately 1,400 ml of medium solution under continued agitation and CO2-gassing.
(§6) The diluted rumen fluid (24 ml) is added to the glass syringe. The syringes are then incubated for 8 hours at 39° C. under gentle agitation. After 8 hours, the volume of gas produced is measured, and the percentage of methane in the gas phase is determined by gas chromatography.
(§7) The food fermented was artificial TMR (44% concentrate, 6% hay, 37% maize silage and 13% grass silage). Lauric acid from Sigma Aldrich was used at a concentration of 1000 μM. 3-Nitrooxy-propanol (3-NOP) was used at two different concentrations, 2.5 μM and 5 μM.
(§8) Ace.=acetate; Prop.=propionate

Assay [2] has as its system rumen liquor. Put plainly: Effect on volatile fatty acids (VFA) profile, acetate/propionate ratio (modified Hohenheim Forage value Test, HFT). Type of assay: cell-based. Conditions: for Ace./Prop.: 8 h, 39° C., artificial TMR, average of three experiments. How it is done: as §1, §2, §3, §4, §5
Filling the Syringes, Incubation and Determining Gas Volumes and VFA Values:
as §6, §7, §8

On to `O=[N+]([O-])OCCCO` [3-NOP, 3-Nitrooxypropanol], for which the “Reduction vs. control (methane)” value in the assay on rumen liquor [1] (3-NOP 2.5 μM) is given as 0.023 mmol over 8 h; in the assay on rumen liquor [1] (3-NOP 5 μM), 0.17 mmol over 8 h. The figures for the Total methane with rumen liquor [1] (3-NOP 2.5 μM) and in the assay with rumen liquor [1] (3-NOP 5 μM) were 0.244 mmol over 8 h and 0.097 mmol over 8 h, respectively. Also, the “Reduction vs. control (Ace./Prop.)” value in the assay on rumen liquor [2] (3-NOP 2.5 μM) amounted to 0.17 Mole Ratio; with rumen liquor [2] (3-NOP 5 μM) it was 0.63 Mole Ratio. Also, the Ace./Prop. is 2.09 Mole Ratio in the assay with rumen liquor [2] (3-NOP 2.5 μM) and 1.63 Mole Ratio with rumen liquor [2] (3-NOP 5 μM).

As to `CCCCCCCCCCCC(=O)O` [Lauric acid, reference compound], in the assay on rumen liquor [1] (Lauric acid 1000 μM), the “Reduction vs. control (methane)” value stood at 0.012 mmol over 8 h and the Total methane was determined as 0.255 mmol over 8 h. In the assay with rumen liquor [2] (Lauric acid 1000 μM), the “Reduction vs. control (Ace./Prop.)” value came to 0.28 Mole Ratio and the Ace./Prop. is 1.98 Mole Ratio.
